# Results as given in patent US7208520B2, “Crystals of hydroxynorephedrine derivative” (Kissei Pharmaceutical Co., Ltd., priority 2001, dated 2007).
# Assay: Stability test: storage at 60° C., residual percentage by HPLC and changes in appearance
# Format: physicochemical
# Details: for Residual percentage: determined by HPLC
# Procedure: Stability test was carried out under a condition of storage at 60° C. for crystalline form A obtained in Example 2, crystalline form B obtained in Example 3 and the amorphous form of compound (II) obtained in Reference Example 1. The residual percentage of test substances was determined by HPLC, and the changes in appearance were observed.
# [1] = storage at 60° C., 7 days, hydrochloride
Structure (SMILES),Changes in appearance (storage at 60° C.),"Appearance (storage at 60° C., 7 days)",Residual percentage [1],Appearance (storage period: Initial),Residual percentage (storage period: Initial),"Residual percentage (storage at 60° C., 7 days)"
"CCOC(=O)COc1cc(C)c(CCN[C@@H](C)[C@H](O)c2ccc(O)cc2)cc1C.Cl [Example 2, Crystalline form A of ethyl (−)-2-[4-[2-[[(1S,2R)-2-hydroxy-2-(4-hydroxyphenyl)-1-methyethyl]amino]ethyl]-2,5-dimethylphenoxy]acetate hydrochloride]",no changes in appearance,white,100,white,100,
"CCOC(=O)COc1cc(C)c(CCN[C@@H](C)[C@H](O)c2ccc(O)cc2)cc1C [compound 1, Ethyl (−)-2-[4-[2-[[(1S,2R)-2-hydroxy-2-(4-hydroxyphenyl)-1-methyethyl]amino]ethyl]-2,5-dimethylphenoxy]acetate, reference compound]",,tannish,,Color-,100,40.0
"CCOC(=O)COc1cc(C)c(CCN[C@@H](C)[C@H](O)c2ccc(O)cc2)cc1C.Cl [Example 3, Crystalline form B of ethyl (−)-2-[4-[2-[[(1S,2R)-2-hydroxy-2-(4-hydroxyphenyl)-1-methyethyl]amino]ethyl]-2,5-dimethylphenoxy]acetate hydrochloride]",no changes in appearance,white,99.9,white,100,
